Data published in article PMC11678425, “(-)-Syringaresinol Exerts an Antidepressant-like Activity in Mice by Noncompetitive Inhibition of the Serotonin Transporter” (Pharmaceuticals, 2024).

Key:
hSERT T497A = target: T1, hSERT T497A (Homo sapiens, UniProt P31645, T497A); test: APP^+ uptake, hSERT T497A; type: cell-based; conditions: S2 site mutant, read-out: SYR IC50 for Transport
T1 construct: forward and reverse primers were used to amplify a full-length hSERT; expressed in transfected cells; host or cells: HeLa cells, transient, pcDNA3.1

hSERT Y95F [1] = target: T2, hSERT Y95F (Homo sapiens, UniProt P31645, Y95F); test: APP^+ uptake, hSERT Y95F; type: cell-based; conditions: S1 site mutant, read-out: SYR IC50 for Transport
T2 construct: forward and reverse primers were used to amplify a full-length hSERT; expressed in transfected cells; host or cells: HeLa
Protocol: (§1) HeLa cells were cultured in Dulbecco’s Modified Eagle’s Medium supplemented with 10% fetal bovine serum, 100 units/mL penicillin, and 100 μg/mL streptomycin at 37 °C in a humidified 5% CO2 incubator. Cells grown at ~70% confluence in a 6 cm culture dish were transfected with hSERT cDNA in pcDNA3.1 by lipofectamine 2000. Transfected cells were incubated for 12 h at 37 °C with 5% CO2 and then transferred into 96-well plates. After being grown for an additional 12–16 h, the cells were then assayed for APP^+ uptake or ASP^+ binding.
Measurement of transport or ligand binding activity of SERT was performed by using its fluorescent substrate (APP^+) or ligand (ASP^+), respectively. The cells transiently expressing WT or mutants of hSERT were applied for various treatments. Briefly, the cells were washed twice with 100 μL KRH buffer containing 20 mM HEPES (Neofroxx, Einhausen, Germany), pH 7.4, 120 mM NaCl, 1.3 mM KCl, 2.2 mM CaCl2, 1.2 mM MgSO4, and 0.1% (w/v) glucose. APP^+ uptake was measured by adding 100 μL KRH buffer containing 2 μM APP^+ and incubating for 5 min at 22 °C. Excess APP^+ was then removed by 3× rapid washing with 100 μL KRH buffer each time. The extent of APP^+ accumulated in the cells was determined by fluorescence spectrometry with an Infinite 200 Pro microplate reader (Tecan, Männedorf, Switzerland). […]

hSERT E494Q = target: T3, hSERT E494Q (Homo sapiens, UniProt P31645, E494Q); test: ASP^+ binding, hSERT E494Q; conditions: S2 site mutant, read-out: SYR IC50 for Binding
T3 construct: forward and reverse primers were used to amplify a full-length hSERT; expressed in transfected cells; host or cells: HeLa cells, transient, pcDNA3.1

hSERT L563A = target: T4, hSERT L563A (Homo sapiens, UniProt P31645, L563A); test: ASP^+ binding, hSERT L563A; conditions: S2 site mutant, read-out: SYR IC50 for Binding
T4 construct: forward and reverse primers were used to amplify a full-length hSERT; expressed in transfected cells; host or cells: HeLa

hSERT Y579A = target: T5, hSERT Y579A (Homo sapiens, UniProt P31645, Y579A); test: ASP^+ binding, hSERT Y579A; conditions: S2 site mutant, read-out: SYR IC50 for Binding
T5 construct: forward and reverse primers were used to amplify a full-length hSERT; expressed in transfected cells; host or cells: HeLa

hSERT T583A = target: T6, hSERT T583A (Homo sapiens, UniProt P31645, T583A); test: ASP^+ binding, hSERT T583A; conditions: S2 site mutant, read-out: SYR IC50 for Binding
T6 construct: forward and reverse primers were used to amplify a full-length hSERT; expressed in transfected cells; host or cells: HeLa

hSERT Y95F [2] = target: T2, hSERT Y95F; test: ASP^+ binding, hSERT Y95F; conditions: S1 site mutant, read-out: SYR IC50 for Binding
hSERT S438T = target: T7, hSERT S438T (Homo sapiens, UniProt P31645, S438T); test: ASP^+ binding, hSERT S438T; conditions: S1 site mutant, read-out: SYR IC50 for Binding
T7 construct: forward and reverse primers were used to amplify a full-length hSERT; expressed in transfected cells; host or cells: HeLa

[3] = tested on: hSERT Q111N, G498T, P561G, Q562N; test: ASP^+ binding, four S2 mutants compared with WT; design: species or system human; conditions: P561G, and Q562N
Protocol: as §1
ASP^+ binding to SERT expressed on the cell surface was measured with digitonin-permeabilized cells as described previously. The cells expressing WT or mutants of hSERT were incubated with 10 μM ASP^+ in the presence of 25 μg/mL digitonin at 22 °C for 5 min. After removing excess ASP^+ by 3× rapid washing, ASP^+ fluorescence retained in the cell membrane was determined by fluorescence spectrometry.
hSERT mutants were generated using the Mut Express II Fast Mutagenesis kit (Vazyme, Nanjing, China). Briefly, forward and reverse primers were used to amplify a full-length hSERT. The PCR products were then digested with restriction enzymes, excised from agarose gels, and ligated into pcDNA3.1. All mutations were confirmed by full-length DNA sequencing.

[4] = tested on: BDNF, PSD-95, GluA1, and vGluT1; test: Immunoblot of synaptic proteins in hippocampus of CUMS mice; type: in vivo, mouse; conditions: same dosage as fluoxetine (10 mg/kg i.p.)
Text: Figure 8 SYR effects on the expression of c-Fos and synaptic proteins in the hippocampus. (A) Representative immunohistochemical images of c-Fos expression in the hippocampus with the indicated treatments. (B) Quantitative analysis for hippocampal c-Fos expression with various treatments. Protein expression level is expressed as a percentage of c-Fos fluorescence measured in the control group. Bars represent the mean ± SEM (n = 4). ** p < 0.01 compared with the control or CUMS group by one-way ANOVA followed by post hoc tests. (C) Representative immunoblots of the synaptic proteins BDNF, PSD-95, GluA1, and vGluT1 with various treatments. (D–G) Quantification of the expression of synaptic proteins BDNF (D), PSD-95 (E), GluA1 (F), and vGluT1 (G). The expression level is expressed as a percentage of the integrated density obtained from the control group. Bars represent the mean ± SEM (n = 4). * p < 0.05, ** p < 0.01 by one-way ANOVA followed by post hoc tests.
Synaptic proteins were extracted from mPFC or hippocampus tissues using RIPA lysis buffer, respectively. Expression of the indicated proteins under various treatments was then analyzed by immunoblotting, as previously reported. […] Quantification of immunoreactive protein bands was performed using Image J v1.53u, and GAPDH was used as an internal reference to normalize expression levels of those proteins, respectively.

T2 sequence (P31645 whole entry Y95F): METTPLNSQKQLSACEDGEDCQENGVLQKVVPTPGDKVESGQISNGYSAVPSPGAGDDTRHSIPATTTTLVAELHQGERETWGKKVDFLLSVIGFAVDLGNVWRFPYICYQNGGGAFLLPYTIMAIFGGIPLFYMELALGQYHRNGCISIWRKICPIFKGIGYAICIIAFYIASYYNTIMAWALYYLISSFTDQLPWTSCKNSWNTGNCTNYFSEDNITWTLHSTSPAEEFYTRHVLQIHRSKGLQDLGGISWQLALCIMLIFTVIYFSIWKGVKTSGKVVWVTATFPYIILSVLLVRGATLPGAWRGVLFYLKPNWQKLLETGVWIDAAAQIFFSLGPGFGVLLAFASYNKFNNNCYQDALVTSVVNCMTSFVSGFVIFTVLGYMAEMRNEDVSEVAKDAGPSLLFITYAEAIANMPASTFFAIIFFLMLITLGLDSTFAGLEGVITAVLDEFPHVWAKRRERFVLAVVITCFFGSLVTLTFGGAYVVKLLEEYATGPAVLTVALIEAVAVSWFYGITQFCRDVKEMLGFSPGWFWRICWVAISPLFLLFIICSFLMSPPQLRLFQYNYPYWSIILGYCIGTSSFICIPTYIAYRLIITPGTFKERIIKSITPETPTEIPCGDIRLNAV
T1 sequence (P31645 whole entry T497A): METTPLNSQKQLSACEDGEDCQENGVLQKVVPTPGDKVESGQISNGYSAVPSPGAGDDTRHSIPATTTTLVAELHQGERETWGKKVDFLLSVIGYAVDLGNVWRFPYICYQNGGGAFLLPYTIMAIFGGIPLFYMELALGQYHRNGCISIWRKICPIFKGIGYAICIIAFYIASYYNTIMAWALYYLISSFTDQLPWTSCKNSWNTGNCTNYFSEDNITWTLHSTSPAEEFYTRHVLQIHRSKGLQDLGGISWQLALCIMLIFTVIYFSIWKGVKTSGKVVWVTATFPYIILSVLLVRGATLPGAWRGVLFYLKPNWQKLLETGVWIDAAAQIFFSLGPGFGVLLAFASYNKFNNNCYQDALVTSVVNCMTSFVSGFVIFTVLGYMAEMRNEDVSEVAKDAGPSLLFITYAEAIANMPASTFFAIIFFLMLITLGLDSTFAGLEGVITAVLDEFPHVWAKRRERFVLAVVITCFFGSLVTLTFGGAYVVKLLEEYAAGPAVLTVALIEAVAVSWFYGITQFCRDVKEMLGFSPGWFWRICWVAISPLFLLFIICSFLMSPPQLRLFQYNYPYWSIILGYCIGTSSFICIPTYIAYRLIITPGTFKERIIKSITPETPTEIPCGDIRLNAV
T3 sequence (P31645 whole entry E494Q): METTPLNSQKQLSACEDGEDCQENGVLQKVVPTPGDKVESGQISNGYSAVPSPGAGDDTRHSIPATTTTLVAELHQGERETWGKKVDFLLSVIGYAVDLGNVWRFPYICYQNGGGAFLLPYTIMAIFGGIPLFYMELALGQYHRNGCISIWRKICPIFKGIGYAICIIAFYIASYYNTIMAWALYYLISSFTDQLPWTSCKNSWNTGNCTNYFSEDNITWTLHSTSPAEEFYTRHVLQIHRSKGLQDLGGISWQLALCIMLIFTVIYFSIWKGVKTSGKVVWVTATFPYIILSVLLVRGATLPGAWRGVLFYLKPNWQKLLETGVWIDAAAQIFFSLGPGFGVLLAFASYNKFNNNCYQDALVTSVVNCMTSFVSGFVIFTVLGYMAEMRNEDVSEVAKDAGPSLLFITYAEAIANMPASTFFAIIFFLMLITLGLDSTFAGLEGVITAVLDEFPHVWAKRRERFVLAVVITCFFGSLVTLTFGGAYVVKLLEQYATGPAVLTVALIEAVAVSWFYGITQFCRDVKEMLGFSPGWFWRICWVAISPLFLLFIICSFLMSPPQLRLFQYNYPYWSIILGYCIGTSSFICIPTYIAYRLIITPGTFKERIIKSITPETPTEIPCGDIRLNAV
T4 sequence (P31645 whole entry L563A): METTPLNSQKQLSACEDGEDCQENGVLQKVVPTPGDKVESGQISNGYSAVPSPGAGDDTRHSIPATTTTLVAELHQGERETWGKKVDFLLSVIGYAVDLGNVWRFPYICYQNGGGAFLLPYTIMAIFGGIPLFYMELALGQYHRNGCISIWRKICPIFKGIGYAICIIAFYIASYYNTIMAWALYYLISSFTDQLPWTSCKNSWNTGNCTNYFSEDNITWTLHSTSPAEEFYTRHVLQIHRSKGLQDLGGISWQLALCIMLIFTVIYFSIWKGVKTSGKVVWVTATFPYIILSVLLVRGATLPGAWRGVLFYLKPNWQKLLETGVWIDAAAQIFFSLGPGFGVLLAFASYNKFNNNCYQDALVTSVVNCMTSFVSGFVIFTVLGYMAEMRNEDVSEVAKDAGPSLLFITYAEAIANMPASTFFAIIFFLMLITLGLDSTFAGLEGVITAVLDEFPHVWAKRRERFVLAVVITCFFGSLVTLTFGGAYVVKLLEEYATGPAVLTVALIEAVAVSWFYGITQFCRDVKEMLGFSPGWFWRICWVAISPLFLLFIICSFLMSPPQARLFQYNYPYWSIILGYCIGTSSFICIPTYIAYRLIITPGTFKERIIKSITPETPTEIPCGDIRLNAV
T6 sequence (P31645 whole entry T583A): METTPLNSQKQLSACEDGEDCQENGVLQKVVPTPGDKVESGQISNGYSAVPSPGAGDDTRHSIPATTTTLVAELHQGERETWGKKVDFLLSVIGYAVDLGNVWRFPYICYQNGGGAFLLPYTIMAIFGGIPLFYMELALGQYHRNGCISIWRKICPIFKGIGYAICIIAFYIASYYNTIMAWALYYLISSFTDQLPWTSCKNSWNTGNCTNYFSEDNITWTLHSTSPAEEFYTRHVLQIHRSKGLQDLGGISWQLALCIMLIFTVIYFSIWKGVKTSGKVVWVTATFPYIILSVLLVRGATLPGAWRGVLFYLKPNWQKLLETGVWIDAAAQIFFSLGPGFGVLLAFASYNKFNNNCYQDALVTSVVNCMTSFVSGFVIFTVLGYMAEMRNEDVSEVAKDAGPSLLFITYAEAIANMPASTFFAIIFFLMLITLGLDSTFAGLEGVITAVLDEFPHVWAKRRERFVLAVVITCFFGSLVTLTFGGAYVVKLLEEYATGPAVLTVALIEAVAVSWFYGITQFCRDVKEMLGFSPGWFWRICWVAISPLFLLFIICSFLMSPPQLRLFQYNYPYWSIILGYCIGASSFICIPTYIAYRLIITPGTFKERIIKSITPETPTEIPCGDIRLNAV
T5 sequence (P31645 whole entry Y579A): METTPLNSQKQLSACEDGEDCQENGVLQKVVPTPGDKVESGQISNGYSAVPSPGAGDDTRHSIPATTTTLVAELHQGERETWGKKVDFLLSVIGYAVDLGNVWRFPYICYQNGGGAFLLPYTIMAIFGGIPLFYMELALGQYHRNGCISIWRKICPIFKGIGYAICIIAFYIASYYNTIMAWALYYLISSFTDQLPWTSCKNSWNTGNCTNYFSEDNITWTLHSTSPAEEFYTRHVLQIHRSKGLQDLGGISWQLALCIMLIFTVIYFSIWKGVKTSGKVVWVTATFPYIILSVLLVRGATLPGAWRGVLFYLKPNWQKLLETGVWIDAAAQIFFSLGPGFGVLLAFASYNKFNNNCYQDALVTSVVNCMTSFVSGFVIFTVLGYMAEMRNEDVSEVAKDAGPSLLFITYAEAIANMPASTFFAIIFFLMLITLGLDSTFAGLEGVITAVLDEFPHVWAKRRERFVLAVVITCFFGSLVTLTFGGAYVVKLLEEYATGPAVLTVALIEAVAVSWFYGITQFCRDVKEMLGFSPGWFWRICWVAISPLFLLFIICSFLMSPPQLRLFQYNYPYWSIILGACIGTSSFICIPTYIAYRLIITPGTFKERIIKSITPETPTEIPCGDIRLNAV
T7 sequence (P31645 whole entry S438T): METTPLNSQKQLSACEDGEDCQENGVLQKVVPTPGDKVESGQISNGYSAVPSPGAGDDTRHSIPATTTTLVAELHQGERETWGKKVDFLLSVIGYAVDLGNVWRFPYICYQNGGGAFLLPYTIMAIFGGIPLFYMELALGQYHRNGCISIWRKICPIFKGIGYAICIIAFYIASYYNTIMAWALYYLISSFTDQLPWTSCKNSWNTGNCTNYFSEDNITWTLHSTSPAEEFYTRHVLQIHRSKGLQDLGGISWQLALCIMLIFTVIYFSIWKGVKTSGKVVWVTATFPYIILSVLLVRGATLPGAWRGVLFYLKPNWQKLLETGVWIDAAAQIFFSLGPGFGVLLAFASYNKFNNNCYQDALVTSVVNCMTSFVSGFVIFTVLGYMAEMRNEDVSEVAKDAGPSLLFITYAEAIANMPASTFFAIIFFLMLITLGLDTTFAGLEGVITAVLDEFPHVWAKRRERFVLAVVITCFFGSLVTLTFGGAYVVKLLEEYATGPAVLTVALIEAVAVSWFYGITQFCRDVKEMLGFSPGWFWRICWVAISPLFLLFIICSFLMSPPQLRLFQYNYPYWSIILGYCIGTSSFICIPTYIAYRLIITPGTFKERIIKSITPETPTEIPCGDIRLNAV

SMILES: COc1cc([C@@H]2OC[C@@H]3[C@H]2CO[C@H]3c2cc(OC)c(O)c(OC)c2)cc(OC)c1O [SYR, (-)-syringaresinol]
- IC50 (hSERT T497A): 10.6 ± 2.4 µM
- IC50 (hSERT Y95F [1]): 2.64 ± 0.12 µM
- IC50 (hSERT E494Q): 9.77 ± 0.78 µM
- IC50 (hSERT L563A): 39 ± 0.92 µM
- IC50 (hSERT Y579A): 28.62 ± 0.15 µM
- IC50 (hSERT T583A): 30.9 ± 0.93 µM
- IC50 (hSERT Y95F [2]): 1.21 ± 0.01 µM
- IC50 (hSERT S438T): 2.32 ± 0.02 µM
- SYR IC50 for ASP^+ binding relative to WT [3]: ≥ 100 fold
- CUMS-induced decrease in expression of synaptic proteins in the hippocampus [4]: effectively alleviate
